# Experimental data taken from US7799813B2, “Salts of substituted 5-membered azacycle and use thereof in the treatment of diseases related to protein aging” (Beijing Molecule Science and Technology Co., Ltd., priority 2006, dated 2010).
# Key:
# [1] = tested on: AGE-BSA-collagen cross-links; assay: Elisa screening experiment on the breaking of AGE-BSA collagen cross-links; assay type: biochemical, rat; settings: 37° C., 16 hours, OD 450 nm, averages of more than three screening results
# Experimental: AGE cross-links were prepared in vitro by cross-linking AGE-BSA to rat tail tendon collagen-coated 96 well microtiter plates. ELISA method was used to evaluate the breaking effect of the compounds on AGE cross-links.
# Normal Wister rats (body weight 200±20 g) were sacrificed acutely, then the tails were excised, and tail collagen was prepared at a temperature of 4° C. as follows: tail tendon collagen fibrils were taken out, washed with physiological saline, peeled off non-collagen fibril tissue, rinsed with distilled deionized water 3 times, cut into pieces, and immersed in 0.1% acetic acid at 4° C. for one week during which the immersion liquid was shaken frequently. Finally, the immersion liquid was subjected to a centrifuge treatment at 8000 G for 30 minutes, and supernatant collagen solution was collected. After dilution, protein content was measured. 96 well microtiter plates (Costar) were full-well coated with the collagen solution in an amount of 70 μg/well at 4° C. for 24 hours, then the coating solution was discarded. The plates were dried in air under sterile condition, coated with a fresh-keeping film, and finally stored at 4° C. for use.
# A solution containing 50 mg/ml of bovine serum albumin BAS (V) (Roch) and 0.5M of glucose in 0.2M PBS (pH 7.4) was incubated at 37° C. under sterile condition for 3-4 months, to thereby form glycosylated BSA, i.e. BSA-AGE. At the same time, non-glycosylated BSA was prepared with glucose-free BSA. Then the BSA-AGE solution was dialyzed against 0.01M PBS (pH 7.4) to be removed of unreacted glucose. Fluorescence scanning (Exi/Em (395/460 nm)) and SDS-PAGE were used to check the formation of BSA-AGE, and protein concentration was determined by the Lowery method.
# The tail collagen-coated 96 well microtiter plates were full-well treated with PBS (pH 7.4) for 1 hour to neutralize the acidic collagen. Then the plates were blocked with Superblock (PIERCE) at 37° C. for 1 hour, and washed with PBST (PBS-Tween) three times while shaking for 1 minute for each time of washing. AGE-BSA was diluted in PBS to a concentration required to obtain maximum cross-linking. 100 μl of the AGE-BSA solution was added to wells in the rows labeled as A, B, C, and D of the 96 well plates, and BSA solution of the same concentration was added to wells in the rows labeled as E, F, G, and H. The first three wells in each row were filled with PBS for the reagent blank. The plates were incubated at 37° C. for 4 hours to allow the collagen crosslink, and washed with PBST four times while shaking for 1 minute for each time of washing. Test compounds were diluted in PBS of pH 7.4. A test compound was added to quadruplicate AGE-BSA cross-links wells and quadruplicate BSA wells in an amount of 100 μl/well. PBS was added in an amount of 100 μl/well in the same way as non-breaking contrast. The plates were incubated at 37° C. for 16 hours and washed four times with PBST while shaking for 1 minute for each time of washing. 80 μl/well of Rabbit-anti-BSA antibody (1:500) was added to the wells and the plates were incubated at 37° C. for 50 minutes. After the plates were washed with PBST four times while shaking for 1 minute for each time of washing, 80 μl/well of horseradish peroxidase-labelled-goat-anti-rabbit IgG (1:1000) was added to the wells. The plates were incubated at 37° C. for 50 minutes, and then washed with PBST three times while shaking for 1 minute for each time of washing. 100 μl/well of TMB substrate (3,3′,5,5′-tetramethylbenzidine) was added to the wells. The plates were incubated at room temperature at dark place for 20 minutes. 2M H2SO4 was used to terminate the reaction. Within 10 minutes after the reaction, optical density was read at 450 nm on the BOBRAD Model 550 plate reader with the blank wells of the plates was set to 0.
# The average optical density (OD) was calculated for each quadruplicate determination. […]
Compound,Breaking rate (decrease % in OD) ([1]; test compound 0.1 mmol/L) [%],Breaking rate (decrease % in OD) ([1]; test compound 1 mmol/L) [%],melting point [°C]
"Cc1sc[n+](CC(=O)OCc2ccccc2)c1C.[Br-] [Compound 1, 3-benzyloxycarbonylmethyl-4,5-dimethyl-thiazole-3-bromide]",9.65 ± 3.55,10.81 ± 3.86,
"Cc1csc[n+]1CC(=O)OCc1ccccc1.[Br-] [Compound 3, 3-benzyloxycarbonylmethyl-4-methyl-thiazole-3-bromide]",16.16 ± 7.07,26.46 ± 18.2,217 to 218
"Cc1sc[n+](CC(=O)c2ccccc2)c1C.[Cl-] [ALT-711, reference compound]",13.4 ± 6.41,15.2 ± 8.43,
"O=C(C[n+]1csc2c1CCCC2)OCc1ccccc1.[Br-] [Compound 4, 3-benzyloxycarbonylmethyl-4,5,6,7-tetrahydro-benzothiazole-3-bromide]",8.45 ± 5.35,7.17 ± 2.40,160 to 166
"Cc1csc[n+]1CC(=O)O.[Br-] [Compound 5, 3-carboxymethyl-4-methyl-thiazole-3-bromide]",,,223 to 230
"Cc1c(CCO)sc[n+]1CC(=O)OCc1ccccc1.[Br-] [Compound 2, 3-benzyloxycarbonylmethyl-5-(2-hydroxyethyl)-4-methyl-thiazole-3-bromide]",13.5 ± 9.53,13.25 ± 10.29,
